Source: the NIST ThermoML archive (doi:10.1007/s10765-008-0506-x)
± gives the expanded uncertainty stated by the source.

Columns and labels:
[1] = xn = mol fraction of the nth substance listed; details: Liquid, Hot wire method
[2] = 294.2 K, Liquid, Hot wire method

CCCCn1cc[n+](C)c1.F[P-](F)(F)(F)(F)F [1-butyl-3-methylimidazolium hexafluorophosphate] + O=C=O
thermal conductivity ([1]; 294.4 K, 10000 kPa, x2 = 0.108): 0.148 ± 0.005 W/m/K | thermal conductivity ([1]; 294.4 K, 10000 kPa, x2 = 0.22): 0.149 ± 0.005 W/m/K | thermal conductivity ([1]; 294.4 K, 10000 kPa, x2 = 0.328): 0.15 ± 0.005 W/m/K | thermal conductivity ([1]; 294.4 K, 10000 kPa, x2 = 0.42): 0.148 ± 0.005 W/m/K | thermal conductivity ([1]; 294.4 K, 20000 kPa, x2 = 0.108): 0.15 ± 0.005 W/m/K | thermal conductivity ([1]; 294.4 K, 20000 kPa, x2 = 0.22): 0.151 ± 0.005 W/m/K | thermal conductivity ([1]; 294.4 K, 20000 kPa, x2 = 0.328): 0.152 ± 0.005 W/m/K | thermal conductivity ([1]; 294.4 K, 20000 kPa, x2 = 0.42): 0.149 ± 0.005 W/m/K | thermal conductivity ([1]; 314.5 K, 10000 kPa, x2 = 0.108): 0.149 ± 0.005 W/m/K | thermal conductivity ([1]; 314.5 K, 10000 kPa, x2 = 0.22): 0.149 ± 0.005 W/m/K | thermal conductivity ([1]; 314.5 K, 10000 kPa, x2 = 0.328): 0.152 ± 0.005 W/m/K | thermal conductivity ([1]; 314.5 K, 10000 kPa, x2 = 0.42): 0.148 ± 0.005 W/m/K | thermal conductivity ([1]; 314.5 K, 20000 kPa, x2 = 0.108): 0.151 ± 0.005 W/m/K | thermal conductivity ([1]; 314.5 K, 20000 kPa, x2 = 0.22): 0.152 ± 0.005 W/m/K | thermal conductivity ([1]; 314.5 K, 20000 kPa, x2 = 0.328): 0.153 ± 0.005 W/m/K | thermal conductivity ([1]; 314.5 K, 20000 kPa, x2 = 0.42): 0.148 ± 0.005 W/m/K | thermal conductivity ([1]; 334.2 K, 10000 kPa, x2 = 0.108): 0.148 ± 0.005 W/m/K | thermal conductivity ([1]; 334.2 K, 10000 kPa, x2 = 0.22): 0.15 ± 0.005 W/m/K | thermal conductivity ([1]; 334.2 K, 10000 kPa, x2 = 0.328): 0.15 ± 0.005 W/m/K | thermal conductivity ([1]; 334.2 K, 10000 kPa, x2 = 0.42): 0.148 ± 0.005 W/m/K | thermal conductivity ([1]; 334.2 K, 20000 kPa, x2 = 0.108): 0.151 ± 0.005 W/m/K | thermal conductivity ([1]; 334.2 K, 20000 kPa, x2 = 0.22): 0.152 ± 0.005 W/m/K | thermal conductivity ([1]; 334.2 K, 20000 kPa, x2 = 0.328): 0.151 ± 0.005 W/m/K | thermal conductivity ([1]; 334.2 K, 20000 kPa, x2 = 0.42): 0.149 ± 0.005 W/m/K

CCCCn1cc[n+](C)c1.F[B-](F)(F)F [1-butyl-3-methylimidazolium tetrafluoroborate] + O=C=O
thermal conductivity ([1]; 294.2 K, 10000 kPa, x2 = 0.169): 0.173 ± 0.005 W/m/K | thermal conductivity ([1]; 294.2 K, 10000 kPa, x2 = 0.308): 0.17 ± 0.005 W/m/K | thermal conductivity ([1]; 294.2 K, 10000 kPa, x2 = 0.422): 0.171 ± 0.005 W/m/K | thermal conductivity ([1]; 294.2 K, 20000 kPa, x2 = 0.169): 0.174 ± 0.005 W/m/K | thermal conductivity ([1]; 294.2 K, 20000 kPa, x2 = 0.308): 0.172 ± 0.005 W/m/K | thermal conductivity ([1]; 294.2 K, 20000 kPa, x2 = 0.422): 0.171 ± 0.005 W/m/K | thermal conductivity ([1]; 314.3 K, 10000 kPa, x2 = 0.169): 0.173 ± 0.005 W/m/K | thermal conductivity ([1]; 314.3 K, 10000 kPa, x2 = 0.308): 0.169 ± 0.005 W/m/K | thermal conductivity ([1]; 314.3 K, 10000 kPa, x2 = 0.422): 0.17 ± 0.005 W/m/K | thermal conductivity ([1]; 314.3 K, 20000 kPa, x2 = 0.169): 0.175 ± 0.005 W/m/K | thermal conductivity ([1]; 314.3 K, 20000 kPa, x2 = 0.308): 0.17 ± 0.005 W/m/K | thermal conductivity ([1]; 314.3 K, 20000 kPa, x2 = 0.422): 0.17 ± 0.005 W/m/K | thermal conductivity ([1]; 334.3 K, 10000 kPa, x2 = 0.169): 0.173 ± 0.005 W/m/K | thermal conductivity ([1]; 334.3 K, 10000 kPa, x2 = 0.308): 0.169 ± 0.005 W/m/K | thermal conductivity ([1]; 334.3 K, 10000 kPa, x2 = 0.422): 0.169 ± 0.005 W/m/K | thermal conductivity ([1]; 334.3 K, 20000 kPa, x2 = 0.169): 0.175 ± 0.005 W/m/K | thermal conductivity ([1]; 334.3 K, 20000 kPa, x2 = 0.308): 0.17 ± 0.005 W/m/K | thermal conductivity ([1]; 334.3 K, 20000 kPa, x2 = 0.422): 0.169 ± 0.005 W/m/K

Cn1ccnc1 [1-methylimidazole]
thermal conductivity ([2]; 10000 kPa): 0.194 ± 0.006 W/m/K | thermal conductivity ([2]; 20000 kPa): 0.196 ± 0.006 W/m/K

Cn1ccnc1 [1-methylimidazole] + O=C=O
thermal conductivity ([1]; 294.2 K, 10000 kPa, x2 = 0): 0.194 ± 0.006 W/m/K | thermal conductivity ([1]; 294.2 K, 10000 kPa, x2 = 0.157): 0.187 ± 0.006 W/m/K | thermal conductivity ([1]; 294.2 K, 10000 kPa, x2 = 0.261): 0.184 ± 0.006 W/m/K | thermal conductivity ([1]; 294.2 K, 10000 kPa, x2 = 0.337): 0.18 ± 0.005 W/m/K | thermal conductivity ([1]; 294.2 K, 10000 kPa, x2 = 0.43): 0.176 ± 0.005 W/m/K | thermal conductivity ([1]; 294.2 K, 20000 kPa, x2 = 0): 0.196 ± 0.006 W/m/K | thermal conductivity ([1]; 294.2 K, 20000 kPa, x2 = 0.157): 0.19 ± 0.006 W/m/K | thermal conductivity ([1]; 294.2 K, 20000 kPa, x2 = 0.261): 0.187 ± 0.006 W/m/K | thermal conductivity ([1]; 294.2 K, 20000 kPa, x2 = 0.337): 0.184 ± 0.006 W/m/K | thermal conductivity ([1]; 294.2 K, 20000 kPa, x2 = 0.43): 0.18 ± 0.005 W/m/K
